# Data published in publication PMC12508057, “Discovery of ETI41 and ETI60: novel selective endosomal Toll-like receptor inhibitors for the treatment of autoimmune diseases” (Experimental & Molecular Medicine, 2025).
# Where two headings read alike, the source gives them in different places.
# What was measured:
# TLR9 = biological target: T1, TLR9 (Mus musculus, UniProt Q9EQU3); test: TLR9 inhibition, TNF-α secretion (ELISA) in RAW 264.7; type: cell-based; settings: for TLR9 TI value: therapeutic index, RAW 264.7
# T1 construct: endogenous in cells; host or cells: RAW 264.7
# T1 sequence (Q9EQU3 26-1032): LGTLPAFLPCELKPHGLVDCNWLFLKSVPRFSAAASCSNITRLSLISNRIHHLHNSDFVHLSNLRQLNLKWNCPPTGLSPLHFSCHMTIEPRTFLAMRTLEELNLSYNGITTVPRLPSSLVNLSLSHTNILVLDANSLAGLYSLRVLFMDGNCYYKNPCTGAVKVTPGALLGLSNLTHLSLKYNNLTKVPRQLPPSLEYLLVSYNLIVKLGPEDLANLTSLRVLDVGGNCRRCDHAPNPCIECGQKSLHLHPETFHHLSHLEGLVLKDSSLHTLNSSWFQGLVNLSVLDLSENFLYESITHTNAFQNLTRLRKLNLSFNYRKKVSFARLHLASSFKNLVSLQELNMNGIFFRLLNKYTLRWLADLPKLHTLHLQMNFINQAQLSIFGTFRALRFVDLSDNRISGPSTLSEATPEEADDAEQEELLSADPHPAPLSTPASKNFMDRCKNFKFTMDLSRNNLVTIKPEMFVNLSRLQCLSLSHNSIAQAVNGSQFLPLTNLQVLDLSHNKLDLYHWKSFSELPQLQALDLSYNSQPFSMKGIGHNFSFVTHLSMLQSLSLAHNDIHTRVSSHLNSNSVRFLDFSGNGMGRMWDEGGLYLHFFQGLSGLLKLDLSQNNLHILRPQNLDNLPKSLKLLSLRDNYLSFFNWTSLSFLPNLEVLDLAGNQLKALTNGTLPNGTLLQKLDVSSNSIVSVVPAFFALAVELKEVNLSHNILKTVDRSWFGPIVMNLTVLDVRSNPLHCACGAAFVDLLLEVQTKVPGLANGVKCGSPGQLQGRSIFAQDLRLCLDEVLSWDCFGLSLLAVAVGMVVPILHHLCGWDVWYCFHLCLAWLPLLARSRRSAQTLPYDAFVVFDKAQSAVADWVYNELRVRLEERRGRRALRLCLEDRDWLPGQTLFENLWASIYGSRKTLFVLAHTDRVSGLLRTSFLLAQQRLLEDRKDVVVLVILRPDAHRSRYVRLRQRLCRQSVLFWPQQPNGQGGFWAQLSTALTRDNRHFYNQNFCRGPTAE
# Protocol: RAW 264.7 and differentiated THP-1 cells were seeded into 96-well plates at 2 × 10^4 cells per well, while Daudi cells were seeded at 5 × 10^4 cells per well. After stabilization for 30 min, cells were stimulated with specific TLR agonists for 4 or 24 h. Supernatants were diluted and transferred to precoated ELISA plates to measure TNF-α secretion using kits from Invitrogen. Optical absorbance was measured using a BioTek Synergy HTX multimode microplate reader, and data were interpolated using BioTek Gen5 software.
# One-tailed paired Student’s t-tests were performed using Microsoft Excel (Microsoft). Semi-logarithmic conversions and nonregression curve analyses for calculating 50% lethal concentration (LC50) and 50% inhibitory concentration (IC50) values were conducted using GraphPad Prism 7.0 (GraphPad). The therapeutic index was calculated as […]. Animal experimental results are expressed as mean ± standard deviation and analyzed using SPSS v.20 (IBM SPSS Statistics). Homogeneity of variance was assessed using Levene’s test.
# The cells were activated with agonistic ligands: […], TLR3 (poly I:C, 2 μg/ml, 24 h), TLR4 (LPS, 10 or 100 ng/ml, 4 h), TLR5 (FLA-ST, 500 ng/ml, 4 h), TLR7 (ORN06/LyoVec, 2 μg/ml, 24 h; and IMQ, 1 μg/ml, 4 h), TLR8 (TL8-506, 2 μg/ml, 24 h) and TLR9 (ODN2395, 1 μM, 4 h) at various concentrations in RAW 264.7 cells, human Daudi cells and THP-1 cells. Data are from at least three independent experiments (n = 3) and statistical differences between the induced case and other cases were analyzed and verified using a one-tailed Student’s t-test (*P < 0.05, **P < 0.01, ***P < 0.001).
# [1] = tested on: IMQ-induced (TLR7) gene expression in RAW 264.7 cells; test: 3' mRNA sequencing of IMQ-stimulated RAW 264.7 cells; type: cell-based, mouse; settings: for Expression of IMQ-induced inflammation-associated genes: RAW 264.7, 2 and 4 h; for Differentially expressed genes (DEGs) / Downregulated DEGs / Upregulated DEGs: RAW 264.7, IMQ-stimulated
# Protocol: RNA quality was assessed using a TapeStation 4000 system (Agilent Technologies). Libraries were prepared using a QuantSeq 3 mRNA-Seq Library Prep Kit FWD (Lexogen) and sequenced using a NextSeq 550 System (Illumina). Sequences were trimmed using BBDuk and aligned with Bowtie2, and the reads were counted using Bedtools[21]–[23]. Data were normalized using edgeR software (Ebiogen) and analyzed for gene function using the Database for Annotation, Visualization, and Integrated Discovery) and for pathway analysis using KEGG Mapper[24],[25]. RNA-seq data were deposited in the Gene Expression Omnibus database under accession number GSE255890.
# Fig. 2 ETI41 and ETI60 inhibit TLR7- and TLR9-dependent downstream signaling. a, b Western blot analysis was used to quantify the protein levels of phosphorylated p-ERK, p-JNK, p38, Iκ-Bα and p65. RAW 264.7 cells were treated with 5 μM or 10 μM of ETI41 or ETI60, followed by exposure to IMQ (2 μg/ml) for 20 or 30 min (a) and ODN2395 (1 μM) for 40 or 50 min (b) respectively. β-Actin served as a loading control for the cytosol, while lamin A/C was utilized as a loading control for the nucleus. c Protein levels of IRF7 were measured after treatment with 5 μM of ETI41 or ETI60, followed by treatment with ODN2395 (1 μM) for 6 or 8 h. d BMDC cells from ex vivo were used to analyze mRNA expression levels of IL-12p40, IFN-β and CD40. Cells were pretreated with ETI41 (0.2 and 1 μM), followed by treatment with ODN2395 (1 μM) for 3 h. All experiments were independently conducted three times. Statistical differences between the induced and other cases were analyzed and verified using a one-tailed Student’s t-test (*P < 0.05, **P < 0.01, ***P < 0.001). e–g The TLR7 agonist IMQ (1 μM) was used in 3’ RNA-seq analysis to induce signaling associated with immune responses in RAW 264.7 cells. […] (e–g) depict changes in gene expression categories without pretreatment (e) after pretreatment with ETI41 (f) or after pretreatment with ETI60 (g) followed by IMQ stimulation. h Heatmaps depicting gene expression patterns within the inflammation and immune response categories (fold change >2.5, P < 0.05) of ETI41 or ETI60, dividing the time after IMQ treatment into 0, 2 and 4 h, respectively. […]
Compound,IC50 (TLR9) [nM],TLR9 TI value (TLR9),Expression of IMQ-induced inflammation-associated genes [1],Differentially expressed genes (DEGs) [1],Downregulated DEGs [1],Upregulated DEGs [1],"IC50 (TLR9; RAW 264.7 cell line, read-out: TLR9 IC50 (mTNFα)) [nM]"
Cc1cc2c(N)c3c(nc2n1CCCN(C)C)CCCCCC3 [ETI41],160,419.88,markedly reduced,509,296,213,
COc1ccc2c3c(N)c4c(nc3n(CCCN(C)C)c2c1)CCCC4 [ETI60],,422.71,markedly reduced,727,380,347,120
